From PMC12064818, “A general assay platform to study protein pharmacology using ligand-dependent structural dynamics” (Nature Communications, 2025)

Target: T1, Nano luciferase (NLuc) (Oplophorus gracilirostris, UniProt Q9GV45, A31E/A60N/A81I/F95D/I117V/K70R/L54V/L99Q/M102K/N193R/P142E/Q151K/Q38R/Q45L/V71I/Y165I)
T1 construct: His tag (inferred from IMAC purification); made in house; host or cells: E. coli
Test: Thermal shift profiles (Thermofluor assay), NLuc
Type: binding
Set-up: unit of the concentration uncertain
Details: compound 100 (unit uncertain); for Thermofluor NLuc, ATP: ATP (2 mM)
Method: Thermal stabilization of proteins in the presence of the ligands were determined using Thermofluor technique. MicroAmp optical 384-well plates (Applied Biosystems by Life Technologies), ViiA 7 real-time PCR instrument (Applied Biosystems by Life Technologies) and SYPRO Orange (Life Technologies) were used to test the samples. […]. Proteins were added to the 384-well plate first followed by the compounds. Samples were incubated for 10 mins at room temperature and protected from light. SYPRO Orange dye was diluted to 50x from 5000x stock in a PBS buffer, and 4 µL dye was added to the each well using a multi-channel pipette. The plate was sealed with a MicroAmp optical adhesive film, centrifuged at 1500 RPM for 2 min, and then loaded onto the ViiA 7 real–time PCR instrument for fluorescence intensity measurements upon heating the sample from 25 to 95 °C at 1 °C/min increments. Data was exported to excel, fluorescence intensity data and its first derivative were normalized and plotted using GraphPad Prism to determine Tm. See Supplementary Table 3 for additional details.
Supplementary Figure 6. Comparison of SDR and Thermofluor analysis of […]
Temperature °C Temperature °C […]
Supplementary Table 3. Protocol for Thermofluor assay
Supplementary Table 3: Protocol for Therm ofluor assay
Sequence Param eter Value Description […]
3 Incubation 10 m ins Room tem perature, protected from light
4 Dye 10X Sypro Orange dye in PBS added to the sam ple
5 Centrifugation 2 m in Centrifuge for 2 m in at 1500 RPM at RT
6 Read ViiA7 Read the therm al unfolding of the protein with ViiA7 real-tim e PCR system
4 Prepare 50X dye in PBS: 1 μL Sypro Orange 5000X (Life Technologies), 99 μL ddH2O. Add 4 μL to each well Read the m elting tem perature from 25 to 95 °C using ViiA 7 real tim e PCR instrum ent by following the below instructions Perform therm al denaturation in 384-well assay plate
(i) Place the assay plate into the Applied Biosystem s ViiA7 real-tim e PCR instrum ent and open the ViiA7 RUO software.
Under Experim ental Properties, select the following param eters: Set up: […] (20 μl), Experim ent type: MELT CURVE, Reagents used to detect target sequence: OTHER, Ram p Speed: […]
(ii) Select the Define tab on the left, then select the following param eters: Target nam e: TARGET 1, Reporter: ROX, 6 Quencher: NONE, Passive Reference: NONE
(iii) Select the Assign tab on the left, then perform the following actions: Highlight all 384 wells in the assay plate and check the box next to ‘Target 1’ on the top left of the plate layout. Note: check the ‘Sam ple’ box on the lower left.
(iv) Select the Run Method tab on the left, then m ake the following changes to the default Melt Curve profile: Delete Step 2 of the default cycle, change run m ethod to “Step and Hold” with a 1:00 tim e, set the following tem peratures: an initial 2:00 hold at 25 °C (4 °C), ram ping up in increm ents of 1 ° C to a final tem perature of 95 °C (with a 2:00 hold), click on all three cam eras to activate fluorescence detection throughout the experim ent, and Select total volum e per well of 20 μl
(v) Click on the RUN tab to the left to initiate therm al denaturation.

T1 sequence (Q9GV45 other isoform, or with tags, fused parts or gaps with the stated changes): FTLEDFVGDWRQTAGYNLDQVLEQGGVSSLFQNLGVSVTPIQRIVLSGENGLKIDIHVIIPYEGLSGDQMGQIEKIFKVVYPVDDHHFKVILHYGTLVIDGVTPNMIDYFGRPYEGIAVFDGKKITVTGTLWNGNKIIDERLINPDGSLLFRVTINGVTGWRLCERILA

`CC(CNC(=O)C1CCN(C(=O)c2ncn3c2COC(c2ccccc2)C3)CC1)c1ccccc1` (stereo not drawn) [NCGC 00449795] was tested, and the “Thermofluor NLuc, No ATP” value (20.000 °C) was 1, the “Thermofluor NLuc, ATP” value (20.000 °C) was 0.97 and the “Thermofluor NLuc, No ATP” value (20.993 °C) was 0.711. For the same molecule, the “Thermofluor NLuc, ATP” value (20.993 °C) was 0.992, the “Thermofluor NLuc, No ATP” value (21.987 °C) was 0.647 and the “Thermofluor NLuc, ATP” value (21.987 °C) was 1. The “Thermofluor NLuc, No ATP” value (22.980 °C) was 0.606, the “Thermofluor NLuc, ATP” value (22.980 °C) was 0.993 and the “Thermofluor NLuc, No ATP” value (23.974 °C) was 0.589. For the same molecule, the “Thermofluor NLuc, ATP” value (23.974 °C) was 0.974, the “Thermofluor NLuc, No ATP” value (24.967 °C) was 0.561 and the “Thermofluor NLuc, ATP” value (24.967 °C) was 0.95. For the same molecule, the “Thermofluor NLuc, No ATP” value (25.960 °C) was 0.532, the “Thermofluor NLuc, ATP” value (25.960 °C) was 0.929 and the “Thermofluor NLuc, No ATP” value (26.954 °C) was 0.532. The “Thermofluor NLuc, ATP” value (26.954 °C) was 0.916, the “Thermofluor NLuc, No ATP” value (27.947 °C) was 0.499 and the “Thermofluor NLuc, ATP” value (27.947 °C) was 0.908. The “Thermofluor NLuc, No ATP” value (28.940 °C) was 0.462, the “Thermofluor NLuc, ATP” value (28.940 °C) was 0.904 and the “Thermofluor NLuc, No ATP” value (29.934 °C) was 0.421. For the same molecule, the “Thermofluor NLuc, ATP” value (29.934 °C) was 0.9, the “Thermofluor NLuc, No ATP” value (30.927 °C) was 0.383 and the “Thermofluor NLuc, ATP” value (30.927 °C) was 0.894. For the same molecule, the “Thermofluor NLuc, No ATP” value (31.921 °C) was 0.366, the “Thermofluor NLuc, ATP” value (31.921 °C) was 0.886 and the “Thermofluor NLuc, No ATP” value (32.914 °C) was 0.333. The “Thermofluor NLuc, ATP” value (32.914 °C) was 0.878, the “Thermofluor NLuc, No ATP” value (33.907 °C) was 0.327 and the “Thermofluor NLuc, ATP” value (33.907 °C) was 0.87. The “Thermofluor NLuc, No ATP” value (34.901 °C) was 0.309, the “Thermofluor NLuc, ATP” value (34.901 °C) was 0.863 and the “Thermofluor NLuc, No ATP” value (35.894 °C) was 0.276. The “Thermofluor NLuc, ATP” value (35.894 °C) was 0.856, the “Thermofluor NLuc, No ATP” value (36.887 °C) was 0.231 and the “Thermofluor NLuc, ATP” value (36.887 °C) was 0.849. The “Thermofluor NLuc, No ATP” value (37.881 °C) was 0.229, the “Thermofluor NLuc, ATP” value (37.881 °C) was 0.841 and the “Thermofluor NLuc, No ATP” value (38.874 °C) was 0.176. The “Thermofluor NLuc, ATP” value (38.874 °C) was 0.833, the “Thermofluor NLuc, No ATP” value (39.868 °C) was 0.201 and the “Thermofluor NLuc, ATP” value (39.868 °C) was 0.827. The “Thermofluor NLuc, No ATP” value (40.861 °C) was 0.184, the “Thermofluor NLuc, ATP” value (40.861 °C) was 0.824 and the “Thermofluor NLuc, No ATP” value (41.854 °C) was 0.161. The “Thermofluor NLuc, ATP” value (41.854 °C) was 0.821, the “Thermofluor NLuc, No ATP” value (42.848 °C) was 0.108 and the “Thermofluor NLuc, ATP” value (42.848 °C) was 0.817. For the same molecule, the “Thermofluor NLuc, No ATP” value (43.841 °C) was 0.096, the “Thermofluor NLuc, ATP” value (43.841 °C) was 0.812 and the “Thermofluor NLuc, No ATP” value (44.835 °C) was 0.098. For the same molecule, the “Thermofluor NLuc, ATP” value (44.835 °C) was 0.805, the “Thermofluor NLuc, No ATP” value (45.828 °C) was 0.096 and the “Thermofluor NLuc, ATP” value (45.828 °C) was 0.794. The “Thermofluor NLuc, No ATP” value (46.821 °C) was 0.034, the “Thermofluor NLuc, ATP” value (46.821 °C) was 0.779 and the “Thermofluor NLuc, No ATP” value (47.815 °C) was 0.027. The “Thermofluor NLuc, ATP” value (47.815 °C) was 0.76, the “Thermofluor NLuc, No ATP” value (48.808 °C) was 0.048 and the “Thermofluor NLuc, ATP” value (48.808 °C) was 0.734. For the same molecule, the “Thermofluor NLuc, No ATP” value (50.795 °C) was 0.006, the “Thermofluor NLuc, ATP” value (50.795 °C) was 0.656 and the “Thermofluor NLuc, No ATP” value (51.788 °C) was 0.009. For the same molecule, the “Thermofluor NLuc, ATP” value (51.788 °C) was 0.601, the “Thermofluor NLuc, No ATP” value (52.782 °C) was 0 and the “Thermofluor NLuc, ATP” value (52.782 °C) was 0.533. For the same molecule, the “Thermofluor NLuc, No ATP” value (53.775 °C) was 0.03, the “Thermofluor NLuc, ATP” value (53.775 °C) was 0.451 and the “Thermofluor NLuc, No ATP” value (54.768 °C) was 0.027. The “Thermofluor NLuc, ATP” value (54.768 °C) was 0.357, the “Thermofluor NLuc, No ATP” value (55.762 °C) was 0.051 and the “Thermofluor NLuc, ATP” value (55.762 °C) was 0.257. The “Thermofluor NLuc, No ATP” value (56.755 °C) was 0.14, the “Thermofluor NLuc, ATP” value (56.755 °C) was 0.161 and the “Thermofluor NLuc, No ATP” value (57.748 °C) was 0.19. The “Thermofluor NLuc, ATP” value (57.748 °C) was 0.079, the “Thermofluor NLuc, No ATP” value (58.742 °C) was 0.3 and the “Thermofluor NLuc, ATP” value (58.742 °C) was 0.022. The “Thermofluor NLuc, No ATP” value (59.735 °C) was 0.413, the “Thermofluor NLuc, ATP” value (59.735 °C) was 0 and the “Thermofluor NLuc, No ATP” value (60.729 °C) was 0.505. The “Thermofluor NLuc, ATP” value (60.729 °C) was 0.015, the “Thermofluor NLuc, No ATP” value (61.722 °C) was 0.61 and the “Thermofluor NLuc, ATP” value (61.722 °C) was 0.065. The “Thermofluor NLuc, No ATP” value (62.715 °C) was 0.667, the “Thermofluor NLuc, ATP” value (62.715 °C) was 0.143 and the “Thermofluor NLuc, No ATP” value (63.709 °C) was 0.726. The “Thermofluor NLuc, ATP” value (63.709 °C) was 0.238, the “Thermofluor NLuc, No ATP” value (65.695 °C) was 0.759 and the “Thermofluor NLuc, ATP” value (65.695 °C) was 0.437. The “Thermofluor NLuc, No ATP” value (66.689 °C) was 0.785, the “Thermofluor NLuc, ATP” value (66.689 °C) was 0.525 and the “Thermofluor NLuc, No ATP” value (68.676 °C) was 0.749. For the same molecule, the “Thermofluor NLuc, ATP” value (68.676 °C) was 0.658, the “Thermofluor NLuc, No ATP” value (69.669 °C) was 0.746 and the “Thermofluor NLuc, ATP” value (69.669 °C) was 0.703. For the same molecule, the “Thermofluor NLuc, No ATP” value (70.662 °C) was 0.73, the “Thermofluor NLuc, ATP” value (70.662 °C) was 0.736 and the “Thermofluor NLuc, No ATP” value (71.656 °C) was 0.72. For the same molecule, the “Thermofluor NLuc, ATP” value (71.656 °C) was 0.76, the “Thermofluor NLuc, No ATP” value (72.649 °C) was 0.696 and the “Thermofluor NLuc, ATP” value (72.649 °C) was 0.778. The “Thermofluor NLuc, No ATP” value (73.643 °C) was 0.686, the “Thermofluor NLuc, ATP” value (73.643 °C) was 0.793 and the “Thermofluor NLuc, No ATP” value (74.636 °C) was 0.672. The “Thermofluor NLuc, ATP” value (74.636 °C) was 0.807, the “Thermofluor NLuc, No ATP” value (75.629 °C) was 0.623 and the “Thermofluor NLuc, ATP” value (75.629 °C) was 0.82.
